{"source": "patent US12564586B2", "about": "“Kappa opiod receptor antagonists for treating pain-related sleep disorders” (ARIZONA BOARD OF REGENTS ON BEHALF OF THE UNIVERSITY OF …, priority 2020, dated 2026)", "key": {"[1]": {"test_system": "PSNL mice (chronic neuropathic pain model)", "assay": "EEG/EMG sleep evaluation in the chronic pain model induced by partial sciatic nerve ligation (PSNL)", "type": "in vivo, C57BL/6J mice", "conditions": "for components of pain-related sleep disturbance (sleep time loss, fragmentation of sleep, daytime sleepiness): mouse model of chronic neuropathic pain, summary statement; for duration of non-REM sleep (sleep fragmentation): 6-hour intervals"}, "sham surgery mice": {"test_system": "sham surgery mice", "assay": "EEG/EMG sleep evaluation in sham surgery mice", "type": "in vivo, C57BL/6J mice", "procedure": "Norbinaltorphimine (nor-BNI) was dissolved in 0.9% saline to 10 mg/kg just before injection. C57BL/6J mice received intraperitoneal injection of nor-BNI or vehicle (0.9% saline) 30 minutes before EEG/EMG record at 10 days after partial sciatic nerve ligation (PSNL) surgery (FIG. 2A). CYM-53093 was synthesized as described previously by Guerrero et al. It was dissolved in DMSO, tween and saline at a ratio of 1:1:8. C57BL/6J mice were implanted with a micro-osmotic pump under the skin at 8 days after PSNL surgery and received continuous infusion of CYM-53093 (10 mg/kg/day) or vehicle. Mice had surgical recovery for 1 day after pump implantation followed by EEG/EMG record for 5 days (FIG. 3A).\nEEG/EMG recording head-mount implantation was done under 2-5% isoflurane anesthesia, mice were implanted with EEG and EMG electrodes for polysomnographic recordings (Pinnacle Technology, Oregon, USA) as described previously by Ito et al. Recording was done in awake animals after acclimatization using EEG/EMG mouse sleep equipment from Pinnacle Technology. The collected EEG/EMG data were analyzed by software (Sleepsign; Kissei Comtec, Japan). The vigilance of every 5-second epoch was automatically classified into three stages, i.e., wakefulness, REM and non-REM sleep, according to the standard criteria. As a final step, defined sleep-wake stages were examined visually and corrected, if necessary. The vigilance states were assessed as follows: 1) wakefulness was defined by a high EMG amplitude, low EEG amplitude; 2) REM sleep was defined by a low EMG amplitude, low EEG amplitude, and high 0 wave (5.0-10.0 Hz) activity; and 3) non-REM sleep was defined by a low EMG amplitude, high EEG amplitude, and high 8 wave (0.65-4.5 Hz) activity.\nTo investigate the effect of the long acting KOR antagonist, nor-BNI, on sleep disruption in preclinical model of chronic pain, the percentage of sleep time for 24 hours between the groups administered nor-BNI or vehicle 10 days after partial sciatic nerve ligation (PSNL), and baseline before PSNL surgery were compared (FIG. 2A). The sham groups were also evaluated in the same time series as PSNL groups. […] First, in order to evaluate the sleep-wake cycle of each group, the changes in the percentage of sleep time were examined every two hours. […] Secondly, the percentage of total sleep (FIG. 2D), non-REM sleep (FIG. 2E), and REM sleep (FIG. 2F) were evaluated and time in the light phase and dark phase were evaluated separately. […] Then, duration of awake and non-REM sleep was evaluated at 6-hour intervals (early and late light phase and early and late dark phase), and compared between baseline, sham/vehicle group, PSNL/vehicle group, sham/nor-BNI group, and PSNL/nor-BNI group."}, "PSNL mice": {"test_system": "PSNL mice", "assay": "von Frey test (paw withdrawal threshold, tactile allodynia)", "type": "in vivo", "conditions": "nor-BNI, naïve or injured (PSNL) animals"}, "[2]": {"conditions": "PSNL, continuous infusion of CYM-53093 10 mg/kg/day, 10 mg/kg/day"}, "[3]": {"conditions": "sham animals, nor-BNI treated vs vehicle treated"}, "[4]": {"conditions": "PSNL group, nor-BNI 10 mg/kg i.p."}}, "note": "Entries after “also recorded” stand apart in the source; their conditions may differ.", "data": [{"smiles": "CCc1cc(F)c2nc(N3CCC(NC4CCOCC4)CC3)c(-c3nc(C)no3)c(C)c2c1", "note": "[CYM53093]", "values": [{"measurement": "fragmentation of non-REM sleep", "setting": "[1]; PSNL, continuous infusion of CYM-53093 10 mg/kg/day", "value": "normalized fragmentation of non-REM sleep"}, {"measurement": "sleep time", "setting": "[1]; PSNL, continuous infusion of CYM-53093 10 mg/kg/day by micro-osmotic pump, 5-day recording, 10 mg/kg/day", "value": "normalized the reduction of sleep time up until day 4; also recorded: normalized the reduction of sleep time and the effect lasted at least until day 4"}, {"measurement": "power density of δ wave during non-REM sleep", "setting": "[1]; PSNL, continuous infusion of CYM-53093 10 mg/kg/day, test day 4, 10 mg/kg/day", "value": "no change in the power density; also recorded: did not change"}, {"measurement": "REM sleep", "setting": "[1]; [2]", "value": "did not improve REM sleep"}, {"measurement": "duration of wakefulness at the first half of the dark phase", "setting": "[1]; [2]", "value": "improved non-REM sleep, wakefulness during the first part of the dark phase; also recorded: improved short duration of wakefulness at the first half of the dark phase"}, {"measurement": "non-REM sleep", "setting": "[1]; [2]", "value": "improved non-REM sleep; also recorded: mainly influenced non-REM sleep"}, {"measurement": "components of pain-related sleep disturbance (sleep time loss, fragmentation of sleep, daytime sleepiness)", "setting": "[1]", "value": "improved several important components of pain-related sleep disturbance"}]}, {"smiles": "Oc1ccc2c3c1O[C@H]1c4[nH]c5c(c4C[C@@]4(O)[C@@H](C2)N(CC2CC2)CC[C@]314)C[C@@]1(O)[C@H]2Cc3ccc(O)c4c3[C@@]1(CCN2CC1CC1)[C@H]5O4", "note": "[nor-BNI, Norbinaltorphimine]", "values": [{"measurement": "percentage of non-REM sleep", "setting": "sham surgery mice; [3]", "value": "no significant difference in the percentage of total sleep and non-REM sleep"}, {"measurement": "percentage of total sleep", "setting": "sham surgery mice; [3]", "value": "no significant difference in the percentage of total sleep and non-REM sleep"}, {"measurement": "sleep time (percentage of sleep time every two hours)", "setting": "sham surgery mice; sham groups, nor-BNI 10 mg/kg i.p.", "value": "had no effect in the sham surgery group; also recorded: had no significant effect on sleep time"}, {"measurement": "REM sleep time", "setting": "sham surgery mice; sham mice, nor-BNI 10 mg/kg i.p.", "value": "significantly reduced REM sleep time in sham mice"}, {"measurement": "evoked (mechanical/tactile) allodynia, paw withdrawal threshold", "setting": "PSNL mice", "value": "did not alter mechanical allodynia in naïve or injured animals; also recorded: did not influence the evoked allodynia"}, {"measurement": "REM sleep time", "setting": "[1]; [4]", "value": "did not improve REM sleep time"}, {"measurement": "duration of wakefulness during the early half of the dark phase", "setting": "[1]; [4]", "value": "improved the inability to stay awake during the dark (active) time of the day; also recorded: tended to extend this duration somewhat, it was not significant"}, {"measurement": "non-REM sleep time", "setting": "[1]; [4]", "value": "increased non-REM sleep time"}, {"measurement": "percentage of total sleep", "setting": "[1]; PSNL group, nor-BNI 10 mg/kg i.p. 10 days after PSNL, light phase", "value": "71.4±1.3", "unit": "%"}, {"measurement": "duration of non-REM sleep (sleep fragmentation)", "setting": "[1]; [4]", "value": "improved sleep fragmentation in PSNL during non-REM sleep"}, {"measurement": "duration of non-REM sleep (sleep fragmentation)", "setting": "[1]; PSNL group, nor-BNI 10 mg/kg i.p., listed as Nor-BNI", "value": "improved this fragmented sleep by PSNL"}, {"measurement": "sleep time (percentage of sleep time every two hours)", "setting": "[1]; PSNL group, nor-BNI 10 mg/kg i.p., vs baseline before PSNL surgery", "value": "normalized the deficit of sleep time of the partial sciatic nerve ligation (PSNL) group to the same as baseline; also recorded: normalized the reduction of sleep time of the PSNL group almost to the same level as baseline"}, {"measurement": "components of pain-related sleep disturbance (sleep time loss, fragmentation of sleep, daytime sleepiness)", "setting": "[1]", "value": "improved several important components of pain-related sleep disturbance"}, {"measurement": "power spectrum during non-REM sleep", "setting": "[1]; nor-BNI 10 mg/kg i.p.", "value": "did not change the power spectrum; also recorded: unchanged in both groups"}]}]}
